Measured values reported in paper PMC12087874, “Biaryl Phosphates and Phosphonates as Selective Inhibitors of the Transcription Factor STAT4” (Angewandte Chemie (International Ed. in English), 2025).
Values joined by “and” are separate entries in the source; they are usually repeats but may differ in a detail not shown here. Equal values may be shown once.

Molecular target: T1, STAT4 (Homo sapiens, UniProt Q14765)
T1 sequence (Q14765 1-748): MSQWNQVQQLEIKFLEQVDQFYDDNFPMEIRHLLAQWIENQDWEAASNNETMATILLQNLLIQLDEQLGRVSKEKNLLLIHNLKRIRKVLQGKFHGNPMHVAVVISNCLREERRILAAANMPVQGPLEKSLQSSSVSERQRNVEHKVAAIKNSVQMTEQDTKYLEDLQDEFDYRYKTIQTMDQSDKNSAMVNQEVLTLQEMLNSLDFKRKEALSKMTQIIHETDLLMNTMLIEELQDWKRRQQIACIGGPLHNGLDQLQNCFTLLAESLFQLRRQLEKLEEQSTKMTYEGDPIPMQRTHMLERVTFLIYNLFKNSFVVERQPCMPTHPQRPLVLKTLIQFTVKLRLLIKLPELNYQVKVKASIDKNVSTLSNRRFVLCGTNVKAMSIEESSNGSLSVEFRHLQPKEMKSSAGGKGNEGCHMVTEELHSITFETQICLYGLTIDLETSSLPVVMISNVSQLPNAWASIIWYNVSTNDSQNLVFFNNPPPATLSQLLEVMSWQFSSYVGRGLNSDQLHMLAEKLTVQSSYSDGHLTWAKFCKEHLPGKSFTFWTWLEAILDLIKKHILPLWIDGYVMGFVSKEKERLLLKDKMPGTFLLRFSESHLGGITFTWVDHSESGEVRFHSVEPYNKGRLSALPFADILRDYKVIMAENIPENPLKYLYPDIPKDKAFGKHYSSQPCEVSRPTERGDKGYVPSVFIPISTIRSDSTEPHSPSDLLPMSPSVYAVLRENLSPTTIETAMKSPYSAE
Experiment: CETSA of STAT4 in lysates from NK-92 cells
Format: binding
Design: utilizing cellular lysates from the STAT4‐expressing natural killer cell line NK‐92; endogenous in cells; host or cells: NK-92 (DSMZ)
Conditions: 100 µM; for ΔT agg of STAT4 / T agg of STAT4 (average): CETSA, NK-92 cell lysates; for ΔT agg of STAT4: versus DMSO control; for T agg of STAT4 (average): DMSO control 48.7 ± 0.5 °C, n = 3; for Tagg (STAT4) 3 independent experiments: individual CETSA experiments, in °C (unit assumed)
Procedure: NK-92 cells (DSMZ) were cultured in α-MEM containing 12.5% fetal bovine serum (FBS), 12.5% horse serum, 2 mM L-glutamine, penicillin/streptomycin and 50 U/ml IL -2. […]
NK-92 cell lysates were prepared for CETSA experiments by washing cultured cells once with TBS and resuspending in TBS supplemented with Halt Protease In hibitor Cocktail, EDTA-free (Fisher Scientific) at 3 x 10^6 cells per 100 µl. […]
CETSA experiments were performed essentially using the published protocol. Briefly, NK-92 cell lysates were incubated with test compound or DMSO for 15 min at room temperature (final DMSO concentration 2%). During this time, the treated lysate was divided into 10x 50 µl aliquots in 0.2 ml reaction tubes. Samples were then heated to the designated temperatures in a Veriti Pro Thermocycler (Thermo Fishe r Scientific) for 3 min, followed by 3 min incubation at room temperature, and then placed on ice. The samples were transferred to 1.5 ml tubes before centrifugation at 20,000 g for 20 min at 4 °C, to remove aggregated proteins. The soluble fractions were subsequently analyzed by Western blotting.
The components of cell lysates from treated cells, or heat-treated lysates from CETSA, were separated by SDS-PAGE (10%), transferred to nitrocellulose membrane (Bio-Rad) and detected using monoclonal rabbit primary antibodies (Cell Signaling), α-rabbit-HRP secondary antibody (Dako) and Western Lightning Plus chemiluminescence reagent (Perkin Elmer).
Bands were visualized using an ImageQuant system (GE Healthcare) and quantitated using ImageJ software (NIH). […]
The sitting drop was composed of 0.1 µl protein solution and 0.1 µl reservoir solution. Plates were stored at 19°C in a protein […]
In the first set of experiments, w e tried to crystallize STAT4 as a SUMO -STAT4 fusion protein […]
was cleaved off as described above.
Screening for crystallization conditions for tag-free STAT4 was performed both in the absence or presence of 1 equivalent of 6m or 6h. Since the chosen protein concentration of 3.6 mg/ml appeared to be too low, screening was repeated with a higher concentration of 6.4 mg/ml STAT4 for all conditions (corresponding to 100 µM 6m). Both the SUMO-STAT4 and the tag-free STAT4 preferentially precipitated under conditions containing polyethylene glycol. In one set of experiments, we also screened for conditions in the presence of the high-affinity peptide GY(PO3H2)LPQNID adapted from the IL-12 receptor. However, none of the conditions resulted in the growth of STAT4 crystals (Table S4).

SMILES	ΔT agg of STAT4	T agg of STAT4 (average)	Tagg (STAT4) 3 independent experiments
Cc1cc(-c2ccc(C(F)(F)P(=O)(O)O)c(F)c2)cs1 [Compound 8k]	1.3 °C	50.0 ± 0.5 °C and 50.0 °C	50.5 and 49.6 and 49.8
O=P(O)(O)C(F)(F)c1ccc(-c2ccc3ccccc3c2)cc1F [Compound 8a]	1.1 °C	49.8 ± 0.1 °C and 49.8 °C	49.9 and 49.7 and 49.8
